Measurements reported in US9623031B2, “Compositions, methods and kits for treating cancer” (priority 2011, dated 2017).

Legend:
[1] = test system: FV-LSCs transplanted into BALB/c-Stk^−/− mice
Protocol: Transplant of FV-LSCs into BALB/c-Stk^−/− mice: FV-LSCs were generated as described above. 2.5×10^5 FV-LSCs were transplanted into BALB/c-Stk^−/− mice by retro-orbital injection. Six weeks after transplant the mice were treated with CyPGs or vehicle control as indicated in the text.
Treatment of Mice with PGs: Mice with FV-induced erythroleukemia or MIGR-BCR-ABL induced CML were treated on the indicated days with CyPGs. Mice were treated with a daily intraperitoneal injection of Δ^12-PGJ3 (0.01-0.1 mg/kg), 15d-PGJ2 (0.1 mg/kg), or 9,10-dihydro-15d-PGJ2 (0.1 mg/kg) for 7 days. All three compounds were formulated with hydroxypropyl-β-cyclodextrin (30% w/v; Sigma; vehicle control).
Stk^−/− mice are resistant to Friend virus infection so the leukemia developed by the transplanted mice is result of the transplanted LSCs and not FV infection. […] LSCs sorted from the spleens of FV-infected mice were transplanted into Stk^−/− mice (on a Balb/c background). After 6 weeks such mice were treated daily for 1 week with vehicle (hydroxypropyl-β-cyclodextrin), 15d-PGJ2 (0.05 mg/kg), or 9,10-dihydro-15d-PGJ2 (0.05 mg/kg) by intraperitoneal injection. The mice were sacrificed 51 days post LSC transplantation for analysis. An analysis of spleens of mice comparing splenomegaly in vehicle, 15d-PGJ2, or 9,10-dihydro-15d-PGJ2 treated transplanted mice was performed. Spleen weight compared to control (untransplanted mice) after treatment and WBC counts in the peripheral blood of the mice after treatment were examined, and a flow cytometric analysis of the spleen of untransplanted and LSC transplanted mice after treatment was performed. All data were mean±s.e.m. *p<0.05 compared to control or 9,10-dihydro-15d-PGJ2 treated groups. N=5 per group.

[2] = test system: Friend virus (FV)-induced erythroleukemia; test: FV-induced erythroleukemia in FV-infected mice, intraperitoneal treatment; format: in vivo, mouse
Excerpt: FV-induced erythroleukemia and production of FV leukemia stem cells (FV-LSCs): BALB/c mice were infected with FV as previously described (Subramanian A et al., J Virol. 2008; 82:382-393; Harandi O F et al., J Clin Invest. 2010; 120:4507-4519). On day 14 after infection, spleens were isolated and a single cell suspension of spleen cells was generated. The cells were filtered through a 70 μm sterile filter and flow-through cells were resuspended in RBC lysis buffer followed by centrifugation. Leukemia stem cells were isolated by FACS. Spleen cells were labeled with anti-Kit, Sca1 (BioLegend, San Diego, Calif.) and M34 antibodies. M34 is a monoclonal antibody that recognizes the envelope protein of SFFV (Chesebro B et al., Virology. 1981; 112:131-144) and was used as previously described (Subramanian A et al., J Virol. 2008; 82:382-393). As indicated M34^+Kit^+Sca1^+ cells were cultured in Methocult media (Stem Cell Technologies Vancouver BC) M3334 supplemented with 200 ng/ml Sonic Hedgehog (Shh), 15 ng/ml bone morphogenetic protein-4 (BMP4) (both from R&D Systems Minneapolis, Minn.), and 50 ng/ml stem cell factor (SCF; Peprotech). For CFU-FV assays, cells were plated in methylcellulose media containing fetal calf serum, but lacking added growth factors as previously described (Mager D L et al., Proc Natl Acad Sci USA. 1981; 78:1703-1707).
Complete blood counts of mice treated with Δ^12-PGJ3 (0.05 mg/kg) were examined. There is no difference in treated mice and untransplanted control mice in terms of white blood cell counts, red blood cell counts or platelet counts. Changes in hematological parameters in FV-infected mice upon treatment with CyPGs were examined. FV-infected Balb/c mice were treated with Δ^12-PGJ3 (0.05 mg/kg) intraperitoneally for 7 d following which the mice were sacrificed and hematological parameters were analyzed on an Advia blood analyzer. FV-infected Δ^12-PGJ3 treated mice were compared to infected vehicle controls. N=5 per group, all data are means±s.e.m. *P<0.05. 3% w/v hydroxypropyl-3-cyclodextrin was used as a vehicle in in vivo experiments. Spleen sizes of FV-infected mice that were treated with either vehicle, 9,10-dihydro-15d-PGJ2 (0.05 mg/kg), or 15d-PGJ2 (0.05 mg/kg) were examined; N=3 pre group. Hematological parameters of Balb/c uninfected, infected, and 15d-PGJ2 treated mice were examined. N=5 per group. All data were means±s.e.m. *P<0.05.
FV-LSC were targeted by 15d-PGJ2 in the spleen of FV-infected mice. FV-infected mice were treated with 15d-PGJ2 or 9,10-dihydro-15d-PGJ2 at 0.05 mg/kg for 7 d. The splenic LSC (M34^+Sca1^+Kit^+) cells were analyzed by flow cytometry on day 14 post infection. […] Uninfected and infected vehicle controls were used for comparison. N=3; *P<0.05. […] The colonies were counted 10-14 days after plating. N=3 mice per group, *p<0.05.

residual FV-LSCs = test: Secondary transplants from treated FV-LSC mice into BALB/c-Stk−/− recipients; format: in vivo, mouse; conditions: donor cells from treated FV-LSC transplanted mice
Protocol: Secondary transplants to test for residual LSCs after treatment with Δ^12-PGJ3: For the CML model, B6.SJLPtprca Pep3b/BoyJ (CD45.1^+) mice were treated with 5-FU and bone marrow cells enriched in cycling HSCs were isolated followed by infection with MIGR-BCR-ABL virus or control MSCV-GFP virus as described above. The cells were transplanted into C57BL/6 (CD45.2) recipient mice as mentioned earlier. The mice were treated with Δ^12-PGJ3 or vehicle control as indicated. Two weeks after treatment, spleen cells were isolated and transplanted into irradiated secondary C57BL/6 (CD45.2) recipients as described above. Two weeks after secondary transplant, mice were analyzed for WBC counts, splenomegaly and the presence of GFP^+ or CD45.1 donor cells in the bone marrow and spleen by flow cytometry. Secondary transplants were also done with FV infected mice treated with Δ^12-PGJ3 or vehicle control. BALB/c mice were infected with Friend virus as described above. The mice were treated with Δ^12-PGJ3 or vehicle control as indicated. Two weeks after treatment, spleen cells isolated from FV-infected mice and transplanted into BALB/c-Stk^−/− recipient mice (1×10^5 cells per mouse). Five weeks post transplant, the mice with secondary transplants were tested for WBC counts, splenomegaly and for the presence of M34^+Kit^+Sca1^+FV-LSCs by flow cytometry.

[3] = test system: imatinib-resistant BCR-ABL(GFP)+ cells; test: Imatinib-resistant BCR-ABL(GFP)+ LSCs treated ex vivo; format: cell-based, mouse; conditions: splenocytes after imatinib i.p. 1 wk and 1 week washout; 25 nM, 24 h
Protocol: FIG. 8 is a graph showing that imatinib-resistant BCR-ABL(GFP)+ cells are targeted by Δ^12-PGJ3. […] The mice were followed for the development of leukemia. Mice that developed leukemia were euthanized and spleens were used as the source of LSCs.
GFP+ LSCs were analyzed by flow cytometry.

CC/C=C\C[C@H](O)C/C=C1/C(=O)C=C[C@@H]1C/C=C\CCCC(=O)O [Δ^12-PGJ3, Δ^12-prostaglandin J3]
leukocyte counts ([1]; 0.025 mg/kg and 0.05 mg/kg, 1 week): concomitant decrease in leukocyte counts
hematocrit, WBC counts and reticulocyte counts ([1]; FV-induced leukemia, FIG. 3C): significantly decreased
LSCs (M34+Sca1+Kit+) in the spleen ([1]; flow cytometry after 1 week i.p. treatment): complete ablation
hematological parameters (complete blood counts) versus untransplanted control mice ([1]; mouse, in vivo): does not adversely affect hematological parameters
pChk2 levels in total spleen extracts ([1]; mouse, in vivo): increase in the levels of pChk2
splenomegaly ([1]; Δ^12-PGJ3 0.025 and 0.05 mg/kg, comparators 0.05 mg/kg, i.p. 1 week): significantly decreased splenomegaly
reduction of splenomegaly ([2]; 0.01 mg/kg/day i.p. for 7 days): ~50%
LSCs (Sca1+Kit+M34+) in the spleen ([2]; 0.05 mg/kg i.p. 7 d, flow cytometry day 14 post infection): completely eradicated
splenomegaly ([2]; 0.05 and 0.1 mg/kg/day i.p. for 7 days from day 7 post infection): no signs of splenomegaly
spleen histology (H&E) ([2]; day 14 post infection): better demarcation of peri-arteriolar lymphoid tissue
total leukocyte and reticulocyte counts ([2]; i.p. 7 days): decreased to normal levels
Bax expression in spleen ([2]; mouse, in vivo): activation of Bax expression
Friend virus viral replication ([2]; mouse, in vivo): not the viral replication
TUNEL staining of splenic sections ([2]; mouse, in vivo): increased apoptosis
CFU-FV colony formation ([2]; spleen cells of treated mice plated without growth factors): completely reduced to background levels
p53 expression in total spleen ([2]; treated for 1 week): significant expression of p53 in the spleen
splenomegaly, WBC counts and LSCs in secondary recipients (residual FV-LSCs): failed to develop splenomegaly or high WBC counts and lacked LSCs in their spleens
targeting of imatinib-resistant GFP+ LSCs [3]: can even target LSCs that are resistant to imatinib treatment
